One block for each compound: values may come before it.
Tests used:
[1] = Solubility of insulin in aqueous solutions containing a delivery agent
Description: The solubility of insulin was investigated in aqueous solutions containing varying amounts of the delivery agent compound sodium 4-CNAB. The aqueous solution containing delivery agent was adjusted to pH 1 by the addition of 1N HCl and excess insulin was added to the acidified solution. Thereafter, the pH of the solution was increased by the addition of increments of 1N NaOH. Vials containing the suspensions were left without shaking or sonicating for 1-2 hours. The supernatant was analyzed for insulin and sodium 4-CNAB using an HPLC method and the pH was recorded. […] All of these experiments were performed at room temperature.

[2] = Dissolution of insulin pellet (USP Dissolution Type II paddle); assay type: physicochemical
Description: A 300 mg pellet of insulin was prepared in a die. The surface area of the pellet available to the dissolution medium was 0.484 cm^2. The pellet was compressed at 1200-1400 lbs on a Carver press to form discs. The die was then attached to the shaft of a dissolution apparatus (USP Dissolution Type II (Paddle) made by Vankel). The die was rotated at 100 rpm and then immersed in 500 mL of degassed dissolution medium maintained at 37° C. Dissolution experiments were conducted in water and in aqueous solutions containing sodium 4-CNAB. Samples of the solutions were taken over two hours and analyzed by HPLC. FIGS. 3 and 4 show dissolution profiles of insulin in deionized (DI) water and in 10 mg/mL sodium 4-CNAB solution, respectively.

[3] = for Solubility: pH 6.8
Description: Excess insulin was added to buffer solutions at pH values of 1, 2, 3, 4, 5, 6, 6.8, and 7.4. Vials containing the solutions were shaken in a constant temperature water bath, and visually observed at regular time intervals. Samples were taken at 2 hours, 4 hours, and 24 hours and analyzed by a stability-indicating HPLC method.

Compound: Insulin: insulin (recombinant human insulin) whose solubility and dissolution were tested
Insulin ([1]; None (DI water), pH 6.3, room temperature): 1.14 mg/mL
rate of insulin dissolution ([2]; 10 mg/mL sodium 4-CNAB dissolution media versus deionized water, 37° C., 100 rpm): significantly greater
insulin levels in dissolution media ([2]; 50 mg/ml sodium 4-CNAB dissolution media, HPLC): below the detection limits

Compound: insulin type #1: recombinant human zinc insulin obtained from Diosynth France
dissolution rate, visual observation ([3]; not observed at pH 1, 2, and 7.4 where dissolution was very rapid for both): dissolved faster than insulin type #2
Solubility [3]: greater than 4 mg/mL

Compound: insulin type #2: recombinant human zinc insulin obtained from Eli Lilly Co.
Solubility [3]: > 2000 µg/mL

Further lines, results first:

Insulin ([1]; delivery agent 5 mg/mL, pH of delivery agent solution 6.4, room temperature): 0.5 mg/mL
Insulin ([1]; delivery agent 10 mg/mL, pH 6.45, room temperature): 1 mg/mL
Insulin ([1]; delivery agent 50 mg/mL, pH 6.26, room temperature): 11 mg/mL
Insulin ([1]; delivery agent 50 mg/mL, pH 6.49, room temperature): 44 mg/mL
Insulin ([1]; delivery agent 100 mg/mL, pH 6.45, room temperature): >110 mg/mL
Insulin ([1]; delivery agent 100 mg/mL, pH 6.71, room temperature): 86 mg/mL
Insulin ([1]; delivery agent 150 mg/mL, pH 6.83, room temperature): 187 mg/mL
Insulin ([1]; delivery agent 200 mg/mL, pH 6.79, room temperature): >135 mg/mL
Compound: O=C(O)CCCNC(=O)c1ccc(Cl)cc1O [Treatment 4-CNAB, 4-[(2-hydroxy-4-chlorobenzoyl)amino]butanoate]

Insulin ([1]; delivery agent 150 mg/mL, pH 7.9, room temperature): >200 mg/mL
Compound: O=C(O)CCCCCCCNC(=O)c1ccccc1O [SNAC, N-(8-[2-hydroxybenzoyl]-amino) caprylic acid]

Insulin ([1]; delivery agent 250 mg/mL, pH 3.9, room temperature): >50 mg/mL
Compound: OCCN(CCO)CCCCCCCCOc1ccccc1O [HPOD, 8-(2-hydroxyphenoxy)octyldiethanolamine]
